Laboratory results from patent US20230373930A1, “AMINOIMIDAZOLE FPR2 AGONISTS” (BRISTOL-MYERS SQUIBB COMPANY, priority 2020, published 2023).

How the values were obtained:
human FPR2 = target: T1, human FPR2 (Homo sapiens, UniProt P25090); experiment: FPR2 cyclic adenosine monophosphate (cAMP) assay; format: cell-based; conditions: CHO cells overexpressing human FPR2; forskolin 5 μM; inhibition of cAMP production; HTRF; read-out: hFPR2 cAMP2 EC50
T1 sequence (P25090 1-351): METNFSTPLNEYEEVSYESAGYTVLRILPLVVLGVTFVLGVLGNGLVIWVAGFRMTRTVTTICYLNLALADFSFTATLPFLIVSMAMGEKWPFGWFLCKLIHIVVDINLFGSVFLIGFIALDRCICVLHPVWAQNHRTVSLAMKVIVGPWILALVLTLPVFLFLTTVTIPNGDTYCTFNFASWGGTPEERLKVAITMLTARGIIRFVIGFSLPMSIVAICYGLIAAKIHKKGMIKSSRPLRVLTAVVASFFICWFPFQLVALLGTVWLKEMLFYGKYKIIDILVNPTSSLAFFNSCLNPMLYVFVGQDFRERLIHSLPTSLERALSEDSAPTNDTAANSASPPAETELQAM
Method: (§1) FPR2 and FPR1 Cyclic Adenosine Monophosphate (cAMP) Assays. A mixture of forskolin (5 μM final for FPR2 or 10 μM final for FPR1) and IBMX (200 μM final) were added to 384-well Proxiplates (Perkin-Elmer) pre-dotted with test compounds in DMSO (1% final) at final concentrations in the range of 0.020 nM to 100 μM. Chinese Hamster Ovary cells (CHO) overexpressing human FPR1 or human FPR2 receptors were cultured in F-12 (Ham's) medium supplemented with 10% qualified FBS, 250 μg/ml zeocin and 300 μg/ml hygromycin (Life Technologies). Reactions were initiated by adding 2,000 human FPR2 cells per well or 4,000 human FPR1 cells per well in Dulbecco's PBS (with calcium and magnesium) (Life Technologies) supplemented with 0.1% BSA (Perkin-Elmer). The reaction mixtures were incubated for 30 min at room temperature. The level of intracellular cAMP was determined using the HTRF HiRange cAMP assay reagent kit (Cisbio) according to manufacturer's instruction. Solutions of cryptate conjugated anti-cAMP and d2 flurorophore-labelled cAMP were made in a supplied lysis buffer separately. Upon completion of the reaction, the cells were lysed with equal volume of the d2-cAMP solution and anti-cAMP solution. After a 1-h room temperature incubation, time-resolved fluorescence intensity was measured using the Envision (Perkin-Elmer) at 400 nm excitation and dual emission at 590 nm and 665 nm. A calibration curve was constructed with an external cAMP standard at concentrations ranging from 1 μM to 0.1 μM by plotting the fluorescent intensity ratio from 665 nm emission to the intensity from the 590 nm emission against cAMP concentrations. The potency and activity of a compound to inhibit cAMP production was then determined by fitting to a 4-parametric logistic equation from a plot of cAMP level versus compound concentrations.

human FPR1 = target: T2, human FPR1 (Homo sapiens, UniProt P21462); experiment: FPR1 cyclic adenosine monophosphate (cAMP) assay; format: cell-based; conditions: CHO cells overexpressing human FPR1; forskolin 10 μM; inhibition of cAMP production; HTRF; read-out: hFPR1 cAMP2 EC50
T2 sequence (P21462 1-350): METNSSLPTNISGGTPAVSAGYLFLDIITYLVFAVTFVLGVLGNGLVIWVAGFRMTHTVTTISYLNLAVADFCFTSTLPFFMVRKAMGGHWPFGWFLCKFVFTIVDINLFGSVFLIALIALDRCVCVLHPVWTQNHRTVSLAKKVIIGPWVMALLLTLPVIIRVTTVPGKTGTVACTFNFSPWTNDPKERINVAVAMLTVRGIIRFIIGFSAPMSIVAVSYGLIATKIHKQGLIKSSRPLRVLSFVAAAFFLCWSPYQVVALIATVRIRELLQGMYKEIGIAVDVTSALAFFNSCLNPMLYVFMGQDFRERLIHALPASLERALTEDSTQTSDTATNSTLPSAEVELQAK
Method: as §1

| SMILES | EC50 (human FPR2) [nM] | EC50 (human FPR1) [nM] |
| --- | --- | --- |
| COc1cc(F)c(-n2cc(C(=O)NCc3cnc(C)cn3)nc2NC(=O)c2ccc(OC(F)F)cc2)c(F)c1 [Example 56, 1-(2,6-Difluoro-4-methoxyphenyl)-2-[4-(difluoromethoxy)benzamido]-N-[(5-methylpyrazin-2-yl)methyl]-1H-imidazole-4-carboxmaide] | 89 | 110 |
| COc1cc(F)c(-n2cc(C(=O)N3CC[C@H](O)C3)nc2NC(=O)c2ccc(OC(F)F)cc2)c(F)c1 [Example 57, N-[1-(2,6-Difluoro-4-methoxyphenyl)-4-[(3S)-3-hydroxypyrrolidine-1-carbonyl]-1H-imidazol-2-yl]-4-(difluoromethoxy)benzamide] | 120 | 1900 |
| COc1cc(F)c(-n2cc(C3CNC3)nc2NC(=O)c2ccc(OC(F)F)cc2)c(F)c1 [Example 79, N-[4-(azetidin-3-yl)-1-(2,6-difluoro-4-methoxyphenyl)-1H-imidazol-2-yl]-4-(difluoromethoxy)benzamide] | 81 | 4200 |
| COc1cc(F)c(-n2cc(Cc3ccccc3)nc2NC(=O)c2ccc(OC(F)F)cc2)c(F)c1 [Example 71, N-[4-benzyl-1-(2,6-difluoro-4-methoxyphenyl)-1H-imidazol-2-yl]-4-(difluoromethoxy)benzamide] | 46 | 1300 |
| COc1cc(F)c(-n2cc(C3CCN(C(=O)CCC(N)=O)CC3)nc2NC(=O)c2ccc(OC(F)F)cc2)c(F)c1 [Example 67, N-{4-[1-(3-Carbamoylpropanoyl)piperidin-4-yl]-1-(2,6-difluoro-4-methoxyphenyl)-1H-imidazol-2-yl}-4-(difluoromethoxy)benzamide] | 54 | 83 |
| COc1ccc(-n2cc(C3CCCCC3)nc2NC(=O)c2ccc(OC(F)F)cc2)cc1 [Example 27, N-[4-Cyclohexyl-1-(4-methoxyphenyl)-1H-imidazol-2-yl]-4-(difluoromethoxy)benzamide] | 55 | 660 |
| CCS(=O)(=O)N1CCC(c2cn(-c3c(F)cc(OC)cc3F)c(NC(=O)c3ccc(OC(F)F)cc3)n2)CC1 [Example 65, N-[1-(2,6-Difluoro-4-methoxyphenyl)-4-[1-(ethanesulfonyl)piperidin-4-yl]-1H-imidazol-2-yl]-4-(difluoromethoxy)benzamide] | 81 | 320 |
| COc1cc(F)c(-n2cc(-c3ccc(OC(F)F)cc3)nc2NC(=O)c2ccc(OC(F)F)cc2)c(F)c1 [Example 7, N-[1-(2,6-Difluoro-4-methoxyphenyl)-4-[4-(difluoromethoxy)phenyl]-1H-imidazol-2-yl]-4-(difluoromethoxy)benzamide] | 33 | 190 |
| COc1cc(F)c(-n2cc(-c3ccn[nH]3)nc2NC(=O)c2ccc(OC(F)F)cc2)c(F)c1 [Example 80, N-[1-(2,6-difluoro-4-methoxyphenyl)-4-(1H-pyrazol-5-yl)-1H-imidazol-2-yl]-4-(difluoromethoxy)benzamide] | 59 | 500 |
| COc1ccc(-n2cc(C(F)(F)C(F)(F)F)nc2NC(=O)c2ccc(OC(F)F)cc2)cc1 [Example 42, 4-(Difluoromethoxy)-N-[1-(4-methoxyphenyl)-4-(1,1,2,2,2-pentafluoroethyl)-1H-imidazol-2-yl]benzamide] | 48 | 57 |
| COc1ccc(-n2cc(-c3ccc4c(c3)CCO4)nc2NC(=O)c2ccc(OC(F)F)cc2)cc1 [Example 19, 4-(Difluoromethoxy)-N-[4-(2,3-dihydro-1-benzofuran-5-yl)-1-(4-methoxyphenyl)-1H-imidazol-2-yl]benzamide] | 28 | 93 |
| COc1cc(F)c(-n2cc(C(C)C)nc2NC(=O)c2ccc(OC(F)F)cc2)c(F)c1 [Example 70, N-(1-(2,6-Difluoro-4-methoxyphenyl)-4-isopropyl-1H-imidazol-2-yl)-4-(difluoromethoxy)benzamide] | 31 | 970 |

Molecules with a lower EC50 (human FPR2), results first:

| EC50 (human FPR2) [nM] | EC50 (human FPR1) [nM] | SMILES |
| --- | --- | --- |
| 10 | 85 | COc1cc(F)c(-n2cc(C3CC(NCC(F)(F)F)C3)nc2NC(=O)c2ccc(OC(F)F)cc2)c(F)c1 (stereo not drawn) [Example 82, N-(1-(2,6-Difluoro-4-methoxyphenyl)-4-(3-((2,2,2-trifluoroethyl)amino)cyclobutyl)-1H-imidazol-2-yl)-4-(difluoromethoxy)benzamide] |
| 16 | 800 | COc1cc(F)c(-n2cc(C3CC3)nc2NC(=O)c2ccc(OC(F)F)cc2)c(F)c1 [Example 37, N-[4-Cyclopropyl-1-(2,6-difluoro-4-methoxyphenyl)-1H-imidazol-2-yl]-4-(difluoromethoxy)benzamide] |
| 7 | 250 | COc1cc(F)c(-n2cc(C3CC(O)C3)nc2NC(=O)c2ccc(OC(F)F)cc2)c(F)c1 (stereo not drawn) [Example 74, N-(1-(2,6-Difluoro-4-methoxyphenyl)-4-(3-hydroxycyclobutyl)-1H-imidazol-2-yl)-4-(difluoromethoxy)benzamide] |
| 6 | 47 | COc1ccc(-n2cc(-c3ccccc3F)nc2NC(=O)c2ccc(OC(F)F)cc2)cc1 [Example 25, 4-(Difluoromethoxy)-N-[4-(2-fluorophenyl)-1-(4-methoxyphenyl)-1H-imidazol-2-yl]benzamide] |
| 5 | 400 | COc1cc(F)c(-n2cc(C3CC(NS(C)(=O)=O)C3)nc2NC(=O)c2ccc(OC(F)F)cc2)c(F)c1 (stereo not drawn) [Example 83, N-[1-(2,6-difluoro-4-methoxyphenyl)-4-(3-methanesulfonamidocyclobutyl)-1H-imidazol-2-yl]-4-(difluoromethoxy)benzamide] |
| 9 | 110 | COc1ccc(-n2cc(-c3nccs3)nc2NC(=O)c2ccc(OC(F)F)cc2)cc1 [Example 24, 4-(Difluoromethoxy)-N-[1-(4-methoxyphenyl)-4-(1,3-thiazol-2-yl)-1H-imidazol-2-yl]benzamide] |
| 5 | 19 | COc1ccc(-n2cc(-c3ccnc(Cl)c3)nc2NC(=O)c2ccc(OC(F)F)cc2)cc1 [Example 20, N-[4-(2-Chloropyridin-4-yl)-1-(4-methoxyphenyl)-1H-imidazol-2-yl]-4-(difluoromethoxy)benzamide] |
| 3 | 38 | COc1ccc(-n2cc(-c3ccccc3)nc2NC(=O)c2ccc(OC(F)F)cc2)cc1 [Example 2, 4-(Difluoromethoxy)-N-[1-(4-methoxyphenyl)-4-phenyl-1H-imidazol-2-yl]benzamide] |
| 4 | 200 | COc1cc(F)c(-n2cc(-c3ccccc3)nc2NC(=O)c2ccc(OC(F)F)cc2)c(F)c1 [Example 1, N-[1-(2,6-Difluoro-4-methoxyphenyl)-4-phenyl-1H-imidazol-2-yl]-4-(difluoromethoxy)benzamide] |
| 23 | 130 | COc1cc(F)c(-n2cc(-c3ccc(C)cc3)nc2NC(=O)c2ccc(OC(F)F)cc2)c(F)c1 [Example 15, N-[1-(2,6-Difluoro-4-methoxyphenyl)-4-(4-methylphenyl)-1H-imidazol-2-yl]-4-(difluoromethoxy)benzamide] |
| 18 | 110 | COc1ccc(-n2cc(C(C)(C)C)nc2NC(=O)c2ccc(OC(F)F)cc2)cc1 [Example 32, N-[4-Tert-butyl-1-(4-methoxyphenyl)-1H-imidazol-2-yl]-4-(difluoromethoxy)benzamide] |
| 11 | 400 | COc1cc(F)c(-n2cc(-c3ccc(F)cc3)nc2NC(=O)c2ccc(OC(F)F)cc2)c(F)c1 [Example 4, N-[1-(2,6-Difluoro-4-methoxyphenyl)-4-(4-fluorophenyl)-1H-imidazol-2-yl]-4-(difluoromethoxy)benzamide] |
